US11173144B2, “Adrenergic receptor modulating compounds and methods of using the same” (The Board of Trustees of the Leland Stanford Junior …, priority 2016, dated 2021)
Like-named read-outs stand apart in the source and are kept apart here. One block for each molecule: values may come before it.

Assays:
ADRB1 [1] = molecular target: T1, ADRB1 (Homo sapiens (Human), UniProt P08588); assay: cAMP assay (homogenous time-resolved fluorescence) in HEK-293 cells stably expressing human recombinant ADRB1; assay type: cell-based; details: for Emax: HEK293, 0.5 h, percent efficacy compared to the maximum response achieved with isoproterenol, read-out: cAMP pathway % Iso max
Method: Pharmacological effects of compounds at the cAMP pathway mediated by ADRB1 are evaluated by measuring cAMP production using the homogenous time-resolved fluorescence detection method with HEK-293 cells stably expressing human recombinant ADRB1. Briefly, cells are suspended in HBSS buffer completed with 20 mM HEPES (pH 7.4) and 500 μM IBMX (3-isobutyl-1-methylxanthine) and distributed at a density of 3×10^3 cells/well. […] The results are expressed as a percent of the maximum efficacy achieved with isoproterenol. Pharmacological effects of compounds at the cAMP pathway mediated by ADRB2 and ADRB3 are measured as described above using CHO cells stably expressing human recombinant ADRB2 and human SK-N-MC neurotumor cells endogenously expressing ADRB3, respectively.
After 30 minute incubation with compounds, the cells are lysed and the fluorescence donor (Europium-chelated-labeled cAMP tracer; Eu-cAMP tracer) and fluorescence acceptor (cAMP-specific monoclonal antibodies labeled with the ULight™ dye) are added. […] The results are expressed as a percent of the control response to 10 μM isoproterenol. For subtype selectivity determination, same procedure is performed using Chinese hamster ovary (CHO) cells stably expressing human β2-adrenergic receptors or SK-N-MC human neuroblastoma cell line expressing β3-adrenergic receptors.
(§1) ADRB1 EC50 from functional assay (nM)^a, Determined using the homogenous time-resolved fluorescence detection method with HEK-293 cells stably expressing human recombinant ADRB1. ADRB2 IC50 from binding assay(nM)^b, Determined using the Tag-lite Adrenoceptor Beta2 receptor ligand binding assay.

ADRB1 [2] = molecular target: T1, ADRB1; assay: β-arrestin assay (PathHunter enzyme fragment complementation, CHO-K1-ADRB1 cells); assay type: cell-based; details: for β-arrestin pathway % Iso max: percent efficacy compared to the maximum response achieved with isoproterenol; for concentration-dependent response at the β-arrestin pathway: up to 30 μM
Method: Pharmacological activity of compounds in the β-arrestin pathway mediated by ADRB1 are evaluated using an enzyme fragment complementation method with a β-galactosidase functional reporter. An engineered CHO-K1-ADRB1 PathHunter cell line (DiscoveRx) is used in the assay. In this cell line, enzyme acceptor (β-galactosidase fragment) is fused to β-arrestin and enzyme donor (β-galactosidase fragment) is fused to the ADRB1. Thus, activation of the ADRB1 stimulates binding of β-arrestin to the ProLink-tagged ADRB1 and forces complementation of the two enzyme fragments, resulting in the formation of an active β-galactosidase enzyme. Briefly, CHO-K1-ADRB1 PathHunter cell lines are plated in a total volume of 20 μL cell plating reagent (DiscoveRx, 93-0563R0A) at a density of 2,500 cells/well into 384 well microplates and incubated overnight at 37° C. in 5% CO2. […] Chemiluminescent signal is then read with a PerkinElmer Envision™ instrument. The results are expressed as a percent of the maximum efficacy achieved with isoproterenol.
Effects of compounds on β-arrestin signaling pathways are determined using CHO cells stably expressing human β1-adrenergic receptors or human β2-adrenergic receptors with PathHunter® β-Arrestin GPCR assay system (DiscoveRx). In this system, adrenergic receptor is fused in frame with the small enzyme fragment ProLink™ and co-expressed in cell stably expressing at fusion protein of β-arrestin and the larger, N-terminal deletion mutant of β-galactosidase enzyme. Activation of the adrenergic receptor stimulates binding of β-arrestin to the ProLink-tagged receptor and forces complementation of the two enzyme fragments, resulting in the formation of an active β-gal enzyme. This interaction leads to an increase in enzyme activity that can be measured using chemiluminescent detection reagents. The effects of compounds on β-arrestin signaling pathways are determined 90 minutes after incubating the cells with the test compounds.

ADRB2 = ADRB2 (Homo sapiens (Human), UniProt P07550); assay: Tag-lite Adrenoceptor Beta2 receptor ligand binding assay; details: Table 7; read-out: ADRB2 IC50 from binding assay
Method: as §1, with “The subtype selective activity of some compounds of interest was assessed for adrenergic receptor beta 1 (ADRB1) versus adrenergic receptor beta 2 (ADRB2). ADRB1 EC50” for “ADRB1 EC50”

C57BI/6J female mice = assay: 24 day administration, lung and heart weight and fibrosis; assay type: in vivo; details: 10 mg/kg for 24 days
Method: C57BI/6J female mice were administered with isoproterenol, KSN01-01-15, or KSN01-01-18 at 10 mg/kg for 24 days. After 24 days of treatment, mice were sacrificed, and lung and heart weight were measured. Hearts were then fixed in 10% formalin, and stained with Masson trichrome for evaluation of fibrosis.

[3] = tested on: LPS-induced TNF-α production in primary microglia; assay: In vitro primary microglia TNF-α assay (LPS stimulation, ELISA); assay type: cell-based, rat; details: 4 h
Text: Mixed glial cells are obtained from the cerebral cortex of Sprague Dawley rat pups at postnatal days 1-3. Briefly, neonates are euthanized by decapitation and their brain tissues are collected for isolation of cortex. The isolated cortex was then trypsinized, triturated, and placed onto tissue culture flasks in DMEM supplemented with 10% fetal bovine serum and 1% Penicillin/Streptomycin. After 10 days in vitro, microglia are harvested by gentle shaking of the growth flask, plated in a 96 well plate at a density of 30,000 cells/well, and incubated at 37° C. overnight. […] Following the 4 h incubation, cell media is collected and the concentration of TNF-α is measured by ELISA (Invitrogen, KRC3011) according to the manufacturer's instruction.
The effects of selected compounds on cellular inflammatory response to LPS are determined in primary microglia extracted from a rat. Briefly, mixed glial cells are obtained from the cerebral cortex of Sprague Dawley rat pups at postnatal days 1-3 and cultured in DMEM supplemented with 10% fetal bovine serum. After 7 days in vitro, microglia are harvested by gentle shaking of the growth flask and plated in a 96 well plate at the density of 3×10^4 cells/well. The cells are used following day. Effects of compounds on LPS-induced TNFα production are determined by incubating cells with LPS along with or without test compounds for 4 hours. Following the 4 hour incubation, cell media are collected and concentration of TNFα was measured by EUSA.

[4] = molecular target: panel of CNS relevant targets, including G-protein coupled receptor and transporters; assay: Screen against a panel of CNS relevant targets (off-target affinity); assay type: binding; details: broad range of neurotransmitter transporters, ion channels and other CNS proteins
Text: From a drug development perspective, characterizing the off-target effects of lead compounds is an important issue, as interactions with off-target molecules may lead to undesirable side effects. Thus we screened xamoterol (S) and the key compound compound 43 against a panel of CNS relevant targets, including G-protein coupled receptor and transporters. […].

[5] = tested on: LPS-induced TNF-α response; assay: In vivo LPS assay; set-up: species or system C57BI/6J mice; details: mice, 3 mg/kg 15 min prior to LPS, 90 min post-LPS
Method: Amplification is performed using StepOnePlus (Applied Biosystems).
Following injections, mice are single-housed. At 90 min post-LPS/saline, mice are deeply anesthetized with isoflurane and blood is collected from the right ventricle via cardiac puncture (23 g needle) into lithium heparin-containing vials (BD microtainer plasma tubes). Plasma is separated by centrifugation (11,000 rpm for 3 minutes) within 30 min of collection and stored at −80° C. until analysis. The concentration of TNF-α in the collected plasma is measured by ELISA (Invitrogen, KMC3012) according to the manufacturer's instruction.

[6] = Table 4, read-out: cAMP pathway ADRB1 EC50
[7] = Table 4, read-out: β-arrestin pathway ADRB1 EC50
[8] = Table 7, read-out: ADRB1 EC50 from functional assay
[9] = Table 3, read-out: cAMP pathway ADRB1 EC50

T1 sequence (P08588 whole entry): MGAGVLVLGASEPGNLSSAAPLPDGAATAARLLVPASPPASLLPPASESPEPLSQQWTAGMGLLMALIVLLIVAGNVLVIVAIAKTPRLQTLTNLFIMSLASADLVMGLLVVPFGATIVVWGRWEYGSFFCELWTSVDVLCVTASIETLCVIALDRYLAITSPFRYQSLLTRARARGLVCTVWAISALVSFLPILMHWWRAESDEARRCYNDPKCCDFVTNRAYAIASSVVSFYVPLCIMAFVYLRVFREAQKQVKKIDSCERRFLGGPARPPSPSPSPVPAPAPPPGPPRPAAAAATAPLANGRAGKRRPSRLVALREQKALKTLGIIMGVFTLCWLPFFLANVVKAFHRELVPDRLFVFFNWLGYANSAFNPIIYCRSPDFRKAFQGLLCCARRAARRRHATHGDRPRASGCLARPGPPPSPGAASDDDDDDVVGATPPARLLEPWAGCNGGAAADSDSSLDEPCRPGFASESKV
ADRB2, sequence (P07550 whole entry): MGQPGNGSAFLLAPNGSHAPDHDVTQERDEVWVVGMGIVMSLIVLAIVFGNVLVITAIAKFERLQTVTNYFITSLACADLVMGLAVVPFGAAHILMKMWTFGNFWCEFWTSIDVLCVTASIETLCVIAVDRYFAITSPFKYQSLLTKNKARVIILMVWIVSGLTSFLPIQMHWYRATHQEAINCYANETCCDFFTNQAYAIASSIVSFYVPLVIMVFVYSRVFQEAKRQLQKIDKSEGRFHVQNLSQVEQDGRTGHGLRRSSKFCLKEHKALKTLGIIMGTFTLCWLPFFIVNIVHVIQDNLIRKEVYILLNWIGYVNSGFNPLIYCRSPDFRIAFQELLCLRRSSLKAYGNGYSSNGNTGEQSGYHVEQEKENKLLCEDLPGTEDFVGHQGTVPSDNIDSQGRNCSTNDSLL

- Emax (ADRB1 [1]; Table 4): 71.9 ± 1.3%
- EC50 (ADRB1 [1]; [6]): 10 to 100 nM
- β-arrestin pathway % Iso max (ADRB1 [2]; Table 4): 18.6%
- EC50 (ADRB1 [2]; [7]): 100 to 1000 nM
Compound: O=C(CCCNC[C@H](O)COc1ccc(O)cc1)N1CCOCC1 [Compound 45]

- EC50 (ADRB1 [1]; [8]): 5 nM
- IC50 (ADRB2): 0.23 nM
Compound: Cc1n[nH]c2cccc(OC[C@@H](O)CNCCOc3ccccn3)c12 [Compound 87]

- Emax (ADRB1 [1]; Table 4): 42 ± 2.4%
- EC50 (ADRB1 [1]; [6]): 100 to 1000 nM
Compound: O=C(NCCNC[C@H](O)COc1ccc(O)cc1)N1CC(O)C1 [Compound 47]
- concentration-dependent response at the β-arrestin pathway (ADRB1 [2]): did not produce concentration-dependent response up to 30 μM

- EC50 (ADRB1 [1]; [8]): 3.4 nM
- IC50 (ADRB2): 0.019 nM
Compound: COCC(C)(C)NC[C@H](O)COc1cccc2[nH]nc(C)c12 [Compound 90]

- EC50 (ADRB1 [1]; [8]): 35.4 nM
- IC50 (ADRB2): 0.38 nM
Compound: COc1ccc(OCCNC[C@H](O)COc2cccc3[nH]nc(C)c23)cc1OC [Compound 55]

- EC50 (ADRB1 [1]; [8]): 9.2 nM
- IC50 (ADRB2): 0.024 nM
Compound: COc1ccccc1OCCNC[C@H](O)COc1cccc2[nH]nc(C)c12 [Compound 52]

- EC50 (ADRB1 [1]; [8]): 44.7 nM
- IC50 (ADRB2): 0.144 nM
Compound: Cc1n[nH]c2cccc(OC[C@@H](O)CNC(C)(C)COc3ccccn3)c12 [Compound 86]

- Emax (ADRB1 [1]; Table 4): 40.1 ± 3.9%
Compound: O=C(NCCNC[C@H](O)COc1ccc(O)cc1)N1CC(CO)C1 [Compound 48]
- concentration-dependent response at the β-arrestin pathway (ADRB1 [2]): did not produce concentration-dependent response up to 30 μM

- EC50 (ADRB1 [1]; [8]): 1 nM
- IC50 (ADRB2): 0.048 nM
Compound: Cc1n[nH]c2cccc(OC[C@@H](O)CNCCc3ccccc3C(F)(F)F)c12 [Compound 69]

Compound: COc1ccccc1CC(C)NC[C@H](O)COc1cccc2[nH]nc(C)c12 (some centres unmarked) [Compound 72]
- EC50 (ADRB1 [1]): 0.8 nM
- IC50 (ADRB2): 0.009 nM

- Emax (ADRB1 [1]; Table 3): 21.5 ± 0.5%
- EC50 (ADRB1 [1]; [9]): 1 to 10 nM
Compound: O=C(NCCNC[C@H](O)COc1cc(F)c(O)cc1F)N1CCOCC1 [Compound 28]

- Emax (ADRB1 [1]; Table 4): 73.9 ± 10.2%
- EC50 (ADRB1 [1]; [6]): 100 to 1000 nM
- β-arrestin pathway % Iso max (ADRB1 [2]; Table 4): 13.7%
- EC50 (ADRB1 [2]; [7]): 10 to 100 nM
Compound: O=C(CCNC[C@H](O)COc1ccc(O)cc1)N1CCOCC1 [Compound 46]

Compound: CC(C)NCC(O)c1ccc(O)c(O)c1 (centres unmarked) [isoproterenol, reference compound]
- fibrotic changes in heart and heart weight (C57BI/6J female mice): induces fibrotic changes in heart and increases heart weight
- fibrotic changes in lung and lung weight (C57BI/6J female mice): induces fibrotic changes in lung and increases lung weight
- morphological changes in heart (C57BI/6J female mice): produces morphological changes in heart
- inhibition at 10 µM ([3]; Rattus norvegicus, Microglia, read-out: inhibition of LPS-induced TNF-α production): 85%

- agonistic activity on the ADRB1-mediated cAMP pathway (ADRB1 [1]): full agonistic activity
- EC50 (ADRB1 [1]; [6]): 1 to 10 nM
- efficacy at the β-arrestin pathway compared to the full agonist isoproterenol (ADRB1 [2]): 36.5%
- β-arrestin pathway % Iso max (ADRB1 [2]; Table 4): 36.5%
- EC50 (ADRB1 [2]; [7]): 10 to 100 nM
- EC50 (ADRB1 [2]; read-out: EC50 at the β-arrestin pathway via ADRB1): 32.2 nM
Compound: COc1ccc(CCNCC(O)COc2ccc(O)c(O)c2)cc1OC (centres unmarked) [Compound 50]

- fibrotic changes in heart and heart weight (C57BI/6J female mice): did not induce these changes
- fibrotic changes in lung and lung weight (C57BI/6J female mice): did not induce these changes
- morphological changes in heart (C57BI/6J female mice): did not induce these changes
- EC50 (ADRB1 [1]; [8]): 3.5 nM
- IC50 (ADRB2): 0.065 nM
Compound: Cc1n[nH]c2cccc(OC[C@@H](O)CNC(C)(C)C)c12 [Compound 75]

- Emax (ADRB1 [1]; Table 4): 60.2 ± 9.9%
- EC50 (ADRB1 [1]; [6]): 100 to 1000 nM
- β-arrestin pathway % Iso max (ADRB1 [2]; Table 4): 14%
- EC50 (ADRB1 [2]; [7]): 100 to 1000 nM
Compound: COc1ccc(CCOCCNC[C@H](O)COc2ccc(O)cc2)cc1OC [Compound 44]

- EC50 (ADRB1 [1]; [9]): 1 to 10 nM
Compound: N#Cc1cc(OC[C@@H](O)CNCCNC(=O)N2CCOCC2)ccc1O [Compound 29]

Compound: O=C(NCCNC[C@H](O)COc1ccc(O)cc1)N1CCOCC1 [(S)-Xamoterol, reference compound]
- Ki [4]: > 10000 nM
- LPS-induced TNF-α response in periphery (plasma) [5]: markedly inhibited
- LPS-induced inflammatory response in the brain (TNF-α, IL-1β, IL-6 gene expression) [5]: attenuated
- inhibition of LPS-induced TNF-α production ([3]; rat primary microglia, LPS 10 ng/ml, compound 10 μM): approximately 60%
